Experimental data taken from PubChem BioAssay AID624367 (Broad Institute, 2012).
The source made the active and inactive calls. No rule for the calls is given here.

tested on: Lymphoblastoid cell line (LCL) cytotoxicity, plate reader; assay: lymphoblastoid cell cytotoxicity, dose response, cytotoxicity control, plate reader, dry powder, set 2 (AID 624367); conditions: not given

**Q.** With `CN(C)c1ccc2c(c1)[C@@H]1C[C@H](CC(=O)NCc3ccc(Oc4ccccc4)cc3)O[C@@H](CO)[C@@H]1O2` as the molecule, how does the AC35 read?
**A.** 30.4 µM

**Q.** With `O=C(C[C@H]1C[C@H]2c3cc(NC(=O)c4ccc5c(c4)OCO5)ccc3O[C@H]2[C@H](CO)O1)NCc1ccc(Oc2ccccc2)cc1` as the molecule, how does the AC35 read?
**A.** 33.8 µM

**Q.** With `O=C(C[C@H]1C[C@@H]2c3cc(NS(=O)(=O)c4ccc(F)cc4)ccc3O[C@@H]2[C@@H](CO)O1)NCc1ccc(Oc2ccccc2)cc1` as the molecule, how does the AC35 read?
**A.** 34.7 µM

**Q.** For `O=C(Nc1ccc(C(F)(F)F)cc1)Nc1ccc2c(c1)[C@@H]1C[C@H](CC(=O)N3CCc4ccccc4C3)O[C@H](CO)[C@@H]1O2`, which AC35 is on record?
**A.** 36.7 µM

**Q.** For `O=C(C[C@@H]1C[C@@H]2c3cc(NC(=O)c4ccc5c(c4)OCO5)ccc3O[C@@H]2[C@@H](CO)O1)NCc1ccc(Oc2ccccc2)cc1`, which AC35 is on record?
**A.** 16 µM

**Q.** With `O=C(C[C@@H]1C[C@@H]2c3cc(NS(=O)(=O)c4ccc(F)cc4)ccc3O[C@@H]2[C@@H](CO)O1)NCc1ccc(Oc2ccccc2)cc1` as the molecule, how does the AC35 read?
**A.** 22.2 µM

tested on: not listed separately; assay: as above; conditions: Lymphoblastoid cell line (LCL) cytotoxicity, plate reader; at 30 µM (top of the series)

**Q.** With `CN(C)C(=O)c1cccc(-c2cccc(-c3nc(C(=O)NCc4ccccc4)cc4c3[C@@H](CCO)N([S@](=O)C(C)(C)C)C4)c2)c1` as the molecule, how does the activity change, negative = cytotoxicity read?
**A.** 8.17% (inactive)

same assay, conditions: Lymphoblastoid cell line (LCL) cytotoxicity, plate reader; at 35 µM (top of the series)

**Q.** With `Cc1noc(C)c1S(=O)(=O)Nc1ccc2c(c1)C(=O)N([C@@H](C)CO)C[C@H](C)[C@H](CN(C)Cc1ccc(C(F)(F)F)cc1)OCCCC[C@H](C)O2` as the molecule, how does the activity change, negative = cytotoxicity read?
**A.** -5.45% (inactive)

**Q.** Which activity change, negative = cytotoxicity does the source give for `N#C[C@H]1[C@@H](c2ccc(-c3cccnc3)cc2)[C@@H](CO)N1C(=O)Nc1ccc(F)cc1` here?
**A.** 3.54% (inactive)

**Q.** Which activity change, negative = cytotoxicity does the source give for `CCCNC(=O)c1cc2c(c(-c3cccc(-c4cccc(F)c4)c3)n1)[C@H](CCO)N([S@@](=O)C(C)(C)C)C2` here?
**A.** -1.43% (inactive)

**Q.** Which activity change, negative = cytotoxicity does the source give for `COC(=O)C[C@H]1C[C@H]2c3cc(NC(=O)CN(C)C)ccc3O[C@H]2[C@H](CO)O1` here?
**A.** 3.27% (inactive)

**Q.** Which activity change, negative = cytotoxicity does the source give for `COc1ccccc1C#Cc1ccc2c(c1)O[C@H](CN(C)Cc1cccnc1)[C@H](C)CN([C@@H](C)CO)S2(=O)=O` here?
**A.** -1.62% (inactive)

**Q.** Which activity change, negative = cytotoxicity does the source give for `C[C@@H](NC(=O)C[C@H]1C[C@@H]2c3cc(NC(=O)c4cccnc4)ccc3O[C@@H]2[C@@H](CO)O1)c1ccccc1` here?
**A.** -0.579% (inactive)

**Q.** With `O=C(Cc1ccccn1)NCC[C@H]1CC[C@@H](NC(=O)Nc2ccc(Cl)cc2)[C@H](CO)O1` as the molecule, how does the activity change, negative = cytotoxicity read?
**A.** -1.08% (inactive)

**Q.** Which activity change, negative = cytotoxicity does the source give for `C[C@@H](NC(=O)C[C@@H]1C=C[C@H](NC(=O)Cc2ccccn2)[C@H](CO)O1)c1ccccc1` here?
**A.** 6.45% (inactive)

**Q.** For `COC(=O)C[C@@H]1C[C@@H]2c3cc(NC(=O)CN(C)C)ccc3O[C@@H]2[C@@H](CO)O1`, which activity change, negative = cytotoxicity is on record?
**A.** -2.96% (inactive)

**Q.** For `O=C(C[C@H]1C[C@@H]2c3cc(NC(=O)c4ccc5c(c4)OCO5)ccc3O[C@@H]2[C@@H](CO)O1)NCc1ccc(Oc2ccccc2)cc1`, which activity change, negative = cytotoxicity is on record?
**A.** -5.15% (inactive)

**Q.** Which activity change, negative = cytotoxicity does the source give for `C[C@@H](NC(=O)C[C@H]1C=C[C@@H](NC(=O)Cc2ccccn2)[C@H](CO)O1)c1ccccc1` here?
**A.** -1.43% (inactive)

**Q.** For `Cc1noc(C)c1S(=O)(=O)Nc1ccc2c(c1)C(=O)N([C@@H](C)CO)C[C@@H](C)[C@@H](CN(C)Cc1ccc(C(F)(F)F)cc1)OCCCC[C@@H](C)O2`, which activity change, negative = cytotoxicity is on record?
**A.** -5.16% (inactive)

**Q.** For `Cc1noc(C)c1S(=O)(=O)Nc1ccc2c(c1)C(=O)N([C@H](C)CO)C[C@H](C)[C@@H](CN(C)Cc1ccc(C(F)(F)F)cc1)OCCCC[C@H](C)O2`, which activity change, negative = cytotoxicity is on record?
**A.** -4.42% (inactive)

**Q.** Which activity change, negative = cytotoxicity does the source give for `O=C(C[C@@H]1C[C@H]2c3cc(NS(=O)(=O)c4ccc(F)cc4)ccc3O[C@H]2[C@@H](CO)O1)NC1CCCCC1` here?
**A.** 5.66% (inactive)

**Q.** Which activity change, negative = cytotoxicity does the source give for `Cc1cc(C(=O)Nc2ccc3c(c2)C(=O)N(C)[C@H]2CC[C@H](CC(=O)NCc4ccc(-c5ccccc5)cc4)O[C@H]2CO3)no1` here?
**A.** -10.2% (inactive)

**Q.** For `CN1C(=O)c2cc(NC(=O)Cc3cccs3)ccc2OC[C@@H]2O[C@H](CC(=O)NCc3ccc(-c4ccccc4)cc3)CC[C@H]21`, which activity change, negative = cytotoxicity is on record?
**A.** -7.27% (inactive)

**Q.** With `COc1ccccc1C#Cc1ccc2c(c1)O[C@H](CN(C)Cc1cccnc1)[C@@H](C)CN([C@@H](C)CO)S2(=O)=O` as the molecule, how does the activity change, negative = cytotoxicity read?
**A.** -6.79% (inactive)

**Q.** With `CC(C)NC(=O)N1Cc2cc(C(=O)NC3Cc4ccccc4C3)nc(-c3cccc(-c4cccnc4)c3)c2[C@@H]1CCO` as the molecule, how does the activity change, negative = cytotoxicity read?
**A.** 0.066% (inactive)

**Q.** Which activity change, negative = cytotoxicity does the source give for `Cc1noc(C)c1S(=O)(=O)Nc1ccc2c(c1)C(=O)N([C@@H](C)CO)C[C@H](C)[C@@H](CN(C)Cc1ccc(C(F)(F)F)cc1)OCCCC[C@H](C)O2` here?
**A.** -1.76% (inactive)

**Q.** Which activity change, negative = cytotoxicity does the source give for `C[C@H]1CN([C@@H](C)CO)C(=O)c2c(c3ccccc3n2C)-c2ccccc2CO[C@H]1CN(C)C(=O)Nc1ccc(F)cc1` here?
**A.** 0.119% (inactive)

**Q.** With `COc1ccccc1C#Cc1cnc2c(c1)C(=O)N([C@H](C)CO)C[C@H](C)[C@@H](CN(C)C(=O)c1ccc3c(c1)OCO3)O2` as the molecule, how does the activity change, negative = cytotoxicity read?
**A.** 8.25% (inactive)

**Q.** For `C[C@@H](NC(=O)C[C@@H]1C=C[C@@H](NC(=O)Cc2ccccn2)[C@@H](CO)O1)c1ccccc1`, which activity change, negative = cytotoxicity is on record?
**A.** -0.658% (inactive)

**Q.** With `CC(C)(C)[S@@](=O)N1Cc2cc(C(=O)NCc3ccccc3F)nc(-c3cccc(-c4ccncc4)c3)c2[C@H]1CCO` as the molecule, how does the activity change, negative = cytotoxicity read?
**A.** 0.812% (inactive)

**Q.** Which activity change, negative = cytotoxicity does the source give for `O=C(C[C@@H]1C[C@H]2c3cc(NS(=O)(=O)c4ccc(F)cc4)ccc3O[C@H]2[C@H](CO)O1)NCc1ccc(Oc2ccccc2)cc1` here?
**A.** -1.34% (inactive)

**Q.** For `C[C@@H]1CN([C@@H](C)CO)S(=O)(=O)c2ccc(C#Cc3ccncc3)cc2O[C@H]1CN(C)C(=O)Nc1ccc2c(c1)OCO2`, which activity change, negative = cytotoxicity is on record?
**A.** -1.7% (inactive)

**Q.** Which activity change, negative = cytotoxicity does the source give for `C[C@H](NC(=O)C[C@@H]1C=C[C@@H](NC(=O)Cc2ccccn2)[C@@H](CO)O1)c1ccccc1` here?
**A.** -1.09% (inactive)

**Q.** For `C[C@@H](NC(=O)C[C@H]1C=C[C@H](NC(=O)Cc2ccccn2)[C@@H](CO)O1)c1ccccc1`, which activity change, negative = cytotoxicity is on record?
**A.** -5.21% (inactive)

**Q.** With `COc1ccccc1CNC(=O)C[C@H]1C[C@@H]2c3cc(NC(=O)CN(C)C)ccc3O[C@@H]2[C@@H](CO)O1` as the molecule, how does the activity change, negative = cytotoxicity read?
**A.** 2.15% (inactive)

**Q.** For `N#C[C@@H]1[C@H](c2ccc(C#Cc3ccccc3F)cc2)[C@@H](CO)N1C(=O)c1cccnc1`, which activity change, negative = cytotoxicity is on record?
**A.** -5.47% (inactive)

**Q.** For `C[C@H](CO)N1C[C@H](C)[C@H](CN(C)Cc2ccc(Oc3ccccc3)cc2)Oc2ccc(NC(=O)CCCN(C)C)cc2C1=O`, which activity change, negative = cytotoxicity is on record?
**A.** -0.446% (inactive)
